Where only a bound is given, the exact number is not on record here.

The results in this text go back to ChEMBL document CHEMBL1143637, “Solid-phase binding assays of peptides using EGFP-Src SH2 domain fusion protein and biotinylated Src SH2 domain” (Bioorg Med Chem Lett, 2005).

Chain of Proto-oncogene tyrosine-protein kinase Src (P12931 2-536 limits assumed): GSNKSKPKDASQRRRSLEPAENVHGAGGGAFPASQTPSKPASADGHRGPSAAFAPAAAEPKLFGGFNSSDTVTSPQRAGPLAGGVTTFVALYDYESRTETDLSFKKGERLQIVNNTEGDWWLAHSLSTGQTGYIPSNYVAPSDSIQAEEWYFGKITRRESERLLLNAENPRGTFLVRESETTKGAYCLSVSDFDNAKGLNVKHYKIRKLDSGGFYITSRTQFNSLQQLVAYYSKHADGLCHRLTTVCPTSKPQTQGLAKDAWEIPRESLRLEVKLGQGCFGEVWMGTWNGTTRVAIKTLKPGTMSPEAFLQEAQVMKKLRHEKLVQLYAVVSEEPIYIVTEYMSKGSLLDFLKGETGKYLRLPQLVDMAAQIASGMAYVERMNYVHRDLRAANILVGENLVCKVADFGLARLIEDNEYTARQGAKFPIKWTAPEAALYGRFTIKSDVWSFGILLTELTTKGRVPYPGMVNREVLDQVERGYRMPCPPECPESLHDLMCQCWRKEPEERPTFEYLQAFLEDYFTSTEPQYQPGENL

The assay has as its target Proto-oncogene tyrosine-protein kinase Src (Homo sapiens, UniProt P12931). Nature of the assay: Inhibitory concentration against Src protein tyrosine kinase SH2 domain.
For orientation: IC50 means the point on the concentration scale where inhibition reaches its midpoint. Lower therefore signals greater potency in that assay. Compound `CC[C@H](C)[C@H](N)C(=O)N[C@@H](CCC(=O)O)C(=O)N[C@@H](CCC(=O)O)C(=O)N[C@@H](Cc1ccc(O)cc1)C(=O)O` displayed an IC50 above 100 µM. Then `CC[C@H](C)[C@H](NC(=O)[C@H](CCC(=O)O)NC(=O)[C@H](CCC(=O)O)NC(=O)[C@@H](N)Cc1ccccc1)C(=O)O`, with above 100 µM; and `CC[C@H](C)[C@H](N)C(=O)N[C@@H](CCC(=O)O)C(=O)N[C@@H](CCC(=O)O)C(=O)N[C@@H](Cc1ccccc1)C(=O)O`, with above 100 µM; and `CC[C@H](C)[C@H](NC(=O)[C@H](CCC(=O)O)NC(=O)[C@H](CCC(=O)O)NC(=O)[C@@H](N)Cc1ccc(O)cc1)C(=O)O`, with above 100 µM.

For `CC[C@H](C)[C@H](N)C(=O)N[C@@H](CCC(=O)O)C(=O)N[C@@H](CCC(=O)O)C(=O)N[C@@H](Cc1ccc(OP(=O)(O)O)cc1)C(=O)O`, the IC50 was above 100 µM.
